The Ki is a dissociation constant, usually derived from enzyme kinetics or from competition with a known ligand. A low value points to higher affinity. For orientation: IC50 means the midpoint of a concentration-inhibition curve. A high value points to weaker potency. The IC90 is the concentration at which the effect reaches the 90% level.

The source made the active and inactive calls. The rule behind the calls is not given here.

The results in this text go back to ChEMBL document CHEMBL5030523, “Mechanisms of the Antiproliferative and Antitumor Activity of Novel Telomerase-Carbonic Anhydrase Dual-Hybrid Inhibitors” (J Med Chem, 2021).

For assay [1], the target named is Carbonic anhydrase 5B, mitochondrial (Homo sapiens, UniProt Q9Y2D0). Put plainly: Inhibition of human carbonic anhydrase 5B by stopped-flow CO2 hydration assay.
The target of the next assay is Carbonic anhydrase 7 (Homo sapiens, UniProt P43166). Put plainly: Inhibition of human carbonic anhydrase 7 by stopped-flow CO2 hydration assay.
Assay [2] has as its target Telomerase reverse transcriptase (Homo sapiens, UniProt O14746). Put plainly: Inhibition of telomerase in human SW-620 cells by TRAP assay. In kind it is cell-based.
In assay [3] the test system is COLO 205. Put plainly: Effect on TERC mRNA expression in human COLO 205 cells measured after 72 hrs by qRT-PCR analysis. In kind it is functional, cell-based. A general note: Real-time PCR tracks product formation cycle by cycle.
In assay [4] the test system is COLO 205. Put plainly: Induction of cell cycle arrest in human COLO 205 cells assessed as decrease in number of cells in S phase incubated for 44 to 56 days by propidium iodide staining based flow cytometry analysis. In kind it is functional. To be noted: time 44-56 day. In general terms: A flow cytometer gives signals particle by particle.
In assay [5] the test system is COLO 205. Put plainly: Induction of apoptosis in human COLO 205 cells assessed as viable cells incubated for 44 days by Annexin V/FITC and PI staining based flow cytometry analysis (reference value: 94.05 %). In kind it is functional. The following applies: time 44 day.
Assay [6] deals with COLO 205. Put plainly: Induction of apoptosis in human COLO 205 cells assessed as late apoptotic cells incubated for 44 days by Annexin V/FITC and PI staining based flow cytometry analysis (reference value: 1.35 %). In kind it is functional. The following applies: time 44 day.
Assay [7] has as its system COLO 205. Put plainly: Induction of apoptosis in human COLO 205 cells assessed as necrotic cells incubated for 44 days by Annexin V/FITC and PI staining based flow cytometry analysis (reference value: 0.1 %). To be noted: time 44 day. In kind it is functional.
For assay [8], the system named is COLO 205. Put plainly: Induction of apoptosis in human COLO 205 cells assessed as necrotic cells incubated for 56 days by Annexin V/FITC and PI staining based flow cytometry analysis (reference value: 0.2 %). In kind it is functional. To be noted: time 56 day.
The subject of assay [9] is COLO 205. Put plainly: Antitumor activity against human COLO 205 cells xenografted in BALB/c nude mouse assessed as tumor growth inhibition at 50 mg/kg, sc administered as single dose measured after 3 days relative to control. In kind it is functional. The following applies: COLO 205, sc, 72 h, time 3 day, read-out: TGI. For orientation: Xenograft models place foreign cells or tissue in a host animal.

Assay [10] has as its system COLO. Put plainly: In vivo inhibition of telomerase in BALB/c mouse xenografted with human COLO 205 cells at 50 mg/kg, sc relative to control. In kind it is functional, organism-based.
For assay [11], the system named is COLO. Put plainly: In vivo inhibition of telomerase in BALB/c mouse xenografted with human COLO 205 cells assessed as reduction in telomere length at 50 mg/kg, sc. In kind it is functional, organism-based.
In assay [12] the test system is COLO 205. Put plainly: Cell cycle arrest in human COLO 205 cells assessed as accumulation at S phase at 30 uM incubated for 44 days by propidium iodide staining based flow cytometry analysis (reference value: 2.25 %). In kind it is functional. The following applies: time 44 day.
For assay [13], the system named is COLO 205. Put plainly: Cell cycle arrest in human COLO 205 cells assessed as accumulation at G0/G1 phase at 30 uM incubated for 56 days by propidium iodide staining based flow cytometry analysis (reference value: 72.81 %). In kind it is functional. The following applies: time 56 day.
In assay [14] the test system is COLO 205. Put plainly: Induction of apoptosis in human COLO 205 cells assessed as early apoptotic cells incubated for 12 hrs by Annexin V/FITC and PI staining based flow cytometry analysis (reference value: 14.75 %). In kind it is functional.
The test system of assay [15] is COLO 205. Put plainly: Induction of apoptosis in human COLO 205 cells assessed as necrotic cells incubated for 24 hrs by Annexin V/FITC and PI staining based flow cytometry analysis (reference value: 0.14 %). In kind it is functional.
The test system of assay [16] is COLO 205. Put plainly: Antitumor activity against human COLO 205 cells xenografted in BALB/c nude mouse assessed as change in tumor volume at 50 mg/kg, sc administered as single dose measured after 3 days (reference value: 449.3 +/- 86.2 mm3). The following applies: time 3 day. In kind it is functional.
Assay [17] concerns COLO 205. Put plainly: Antitumor activity against human COLO 205 cells xenografted in BALB/c nude mouse assessed as tumor growth inhibition at 50 mg/kg, sc administered as single dose measured after 5 days relative to control. In kind it is functional. To be noted: COLO 205, sc, 120 h, time 5 day, read-out: TGI.
Assay [18] deals with COLO 205. Put plainly: Antitumor activity against human COLO 205 cells xenografted in BALB/c nude mouse assessed as change in tumor volume at 50 mg/kg, sc administered as single dose measured after 5 days (reference value: 270.1 +/- 52.1 mm3). To be noted: time 5 day. In kind it is functional.

Chain of Telomerase reverse transcriptase (O14746 whole entry): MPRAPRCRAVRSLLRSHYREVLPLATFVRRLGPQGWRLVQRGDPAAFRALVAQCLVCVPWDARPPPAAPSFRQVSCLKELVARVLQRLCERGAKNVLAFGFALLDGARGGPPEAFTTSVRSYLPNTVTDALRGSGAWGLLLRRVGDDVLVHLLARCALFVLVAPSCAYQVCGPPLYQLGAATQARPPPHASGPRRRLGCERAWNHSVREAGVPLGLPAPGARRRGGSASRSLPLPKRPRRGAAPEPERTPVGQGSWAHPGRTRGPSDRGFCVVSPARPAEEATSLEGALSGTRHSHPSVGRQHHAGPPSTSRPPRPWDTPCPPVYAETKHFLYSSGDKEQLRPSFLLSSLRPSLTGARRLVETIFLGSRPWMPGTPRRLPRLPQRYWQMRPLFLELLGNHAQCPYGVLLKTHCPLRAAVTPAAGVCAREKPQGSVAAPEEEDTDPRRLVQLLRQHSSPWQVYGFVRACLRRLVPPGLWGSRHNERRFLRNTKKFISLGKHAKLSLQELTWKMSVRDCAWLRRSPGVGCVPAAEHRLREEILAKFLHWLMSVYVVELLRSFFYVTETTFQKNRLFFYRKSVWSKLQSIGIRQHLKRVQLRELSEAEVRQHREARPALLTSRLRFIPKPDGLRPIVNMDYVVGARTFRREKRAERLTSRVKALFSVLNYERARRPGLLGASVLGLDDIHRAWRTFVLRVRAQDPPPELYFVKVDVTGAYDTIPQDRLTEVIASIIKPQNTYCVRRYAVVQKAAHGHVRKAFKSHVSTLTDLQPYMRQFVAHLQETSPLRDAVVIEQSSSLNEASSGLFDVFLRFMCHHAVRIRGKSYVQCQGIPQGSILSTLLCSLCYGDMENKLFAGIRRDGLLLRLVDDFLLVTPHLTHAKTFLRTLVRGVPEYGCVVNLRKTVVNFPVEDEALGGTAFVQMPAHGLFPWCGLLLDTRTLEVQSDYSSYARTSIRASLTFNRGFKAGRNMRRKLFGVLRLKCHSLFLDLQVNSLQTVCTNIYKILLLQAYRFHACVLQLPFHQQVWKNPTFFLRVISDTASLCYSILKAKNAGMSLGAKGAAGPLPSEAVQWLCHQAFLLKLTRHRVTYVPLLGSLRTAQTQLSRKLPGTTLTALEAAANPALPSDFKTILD
Chain of Carbonic anhydrase 5B, mitochondrial (Q9Y2D0 whole entry): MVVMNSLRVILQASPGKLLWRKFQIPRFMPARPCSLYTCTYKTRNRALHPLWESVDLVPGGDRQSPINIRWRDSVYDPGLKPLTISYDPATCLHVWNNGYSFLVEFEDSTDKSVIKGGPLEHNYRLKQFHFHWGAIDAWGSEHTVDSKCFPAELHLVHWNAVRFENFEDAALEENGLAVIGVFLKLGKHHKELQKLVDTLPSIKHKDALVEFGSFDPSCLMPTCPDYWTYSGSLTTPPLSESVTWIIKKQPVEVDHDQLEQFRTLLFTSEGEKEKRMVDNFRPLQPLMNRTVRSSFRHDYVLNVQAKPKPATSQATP
Chain of Carbonic anhydrase 7 (P43166 whole entry): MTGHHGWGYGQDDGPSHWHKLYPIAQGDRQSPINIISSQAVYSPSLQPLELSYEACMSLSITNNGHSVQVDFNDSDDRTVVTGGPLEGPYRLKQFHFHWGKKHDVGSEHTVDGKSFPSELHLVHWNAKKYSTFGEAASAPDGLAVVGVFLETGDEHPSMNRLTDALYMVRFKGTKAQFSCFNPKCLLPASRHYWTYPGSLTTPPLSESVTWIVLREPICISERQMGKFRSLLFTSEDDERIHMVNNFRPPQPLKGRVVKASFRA

As to `Cc1cn([C@H]2C[C@@H](n3cc(CNC(=O)Nc4cccc(S(N)(=O)=O)c4)nn3)[C@@H](CO)O2)c(=O)[nH]c1=O`, the values for the Ki (in assay [1]; on Carbonic anhydrase 7) were 0.0478 µM and 0.0094 µM, respectively. In [2], this molecule registered an IC50 of 3 µM. The same molecule came in with an IC90 in assay [2] of 35.1 µM. Besides, the result with COLO 205 [3] was inactive. Moreover, the result with COLO 205 [4] was Active. Further, the Activity is 62.43% in the assay on COLO 205 [5]; 23.57% with COLO 205 [6]; 0.52% in the assay on COLO 205 [7]; 1.47% in the assay on COLO 205 [8]; 0.56% with COLO 205 [12]; 34.74% in the assay on COLO 205 [13]. Also, the Activity in the assay with COLO 205 [14] is recorded as 12.33%; in the assay on COLO 205 [15], 0.14%; in the assay on COLO 205 [16] it was 305.3 mm3. For the same molecule, the inhibition in vivo at 50 mg/kg in the assay on COLO 205 [9] stood at 32.1%. The inhibition entry in the assay with COLO [10] and with COLO [11] was “Active” in each case.

Consider `Cc1cn([C@H]2C[C@@H](n3cc(COC(=O)c4ccc(S(N)(=O)=O)cc4)nn3)[C@@H](CO)O2)c(=O)[nH]c1=O`, for which the Ki in [1] turned out to be 0.0542 µM; on Carbonic anhydrase 7, 0.0485 µM. Moreover, in assay [2], the midpoint of inhibition, the IC50, lay at 8.6 µM. Further, in assay [2], the IC90 is 33.2 µM. For the same molecule, the result in the assay with COLO 205 [3] was inactive. For the same molecule, in the assay with COLO 205 [4], the result was Active. The Activity is given as 76.55% with COLO 205 [5]; 12.74% in the assay with COLO 205 [6]; 0.17% in the assay with COLO 205 [7]; 0.94% with COLO 205 [8]; 0.59% in the assay on COLO 205 [12]; 37.46% with COLO 205 [13]. Further, the Activity in the assay with COLO 205 [14] came to 8.27%; with COLO 205 [15], 0.12%; with COLO 205 [18] it was 181.4 mm3; in the assay with COLO 205 [16], 552.6 mm3. In the assay on COLO 205 [17], the inhibition in vivo at 50 mg/kg is 33%. In addition, the inhibition entry in the assay with COLO [10] was “Active”.
